Molecular target: Trypanosoma cruzi glucokinase (TcGlcK) (Trypanosoma cruzi, UniProt Q4E4E1)
Test: Determination of Ki values by type 1 and type 2 Dixon plots;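 further: compounds supplied as 10 mM DMSO stocks (100 µL format), with a non-inhibitory compound run alongside for comparison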
Format: biochemical
Method: The inhibition constant can be determined by development of a Dixon plot (either type 1 or type 2) according to standard practice, and as utilized herein refers to the inhibitor concentration at which half maximum inhibition is determined for a 100 μL/10 mM format in DMSO.
Determination of the Ki values for inhibitors was performed by creation of both type 1 and type 2 Dixon plots. The format included 100 μL/10 mM in DMSO.

Trypanosoma cruzi glucokinase (TcGlcK), sequence (Q4E4E1 1-376): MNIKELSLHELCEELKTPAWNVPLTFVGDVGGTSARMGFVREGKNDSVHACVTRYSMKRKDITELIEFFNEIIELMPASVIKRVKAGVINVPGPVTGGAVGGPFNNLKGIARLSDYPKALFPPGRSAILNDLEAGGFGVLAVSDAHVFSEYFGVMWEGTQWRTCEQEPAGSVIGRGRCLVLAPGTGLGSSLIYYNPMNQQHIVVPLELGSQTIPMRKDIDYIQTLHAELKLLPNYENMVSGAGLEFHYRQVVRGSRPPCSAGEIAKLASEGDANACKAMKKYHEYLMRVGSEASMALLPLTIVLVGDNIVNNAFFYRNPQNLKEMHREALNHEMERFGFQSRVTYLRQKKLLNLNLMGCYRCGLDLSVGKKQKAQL

Row | Compound | Ki | inhibition (Dixon plots) (type 1 and type 2 Dixon plots, comparison compound)
1 | CCCC(CCC)/N=C/c1c(O)c(O)c(C(C)C)c2cc(C)c(-c3c(C)cc4c(C(C)C)c(O)c(O)c(/C=N/C(CCC)CCC)c4c3O)c(O)c12 (atropisomer, axis not shown) [Inhibitor 46] | 99.1 µM | –
2 | CCCCCC1CCC(=O)N1CCN/C=C1\C(=O)C(O)=C(C(C)C)c2cc(C)c(-c3c(C)cc4c(c3O)/C(=C/NCCN3C(=O)CCC3CCCCC)C(=O)C(O)=C4C(C)C)c(O)c21 (stereo not shown) [Inhibitor 75] | 560 µM | –
3 | Cc1cc2c(C(C)C)c(O)c(O)c(/C=N/CCOc3ccc4c(c3)CCC4)c2c(O)c1-c1c(C)cc2c(C(C)C)c(O)c(O)c(/C=N/CCOc3ccc4c(c3)CCC4)c2c1O (atropisomer, axis not shown) [Inhibitor 82] | 98.9 µM | –
4 | Cc1cc2c(c(O)c1-c1c(C)cc3c(c1O)/C(=C/NC(C)CCc1ccco1)C(=O)C(O)=C3C(C)C)/C(=C/NC(C)CCc1ccco1)C(=O)C(O)=C2C(C)C (stereo not shown) [Inhibitor 73] | 2.03 µM | –
5 | Cc1cc2c(C(C)C)c(O)c(O)c(/C=N/CCOc3ccccc3F)c2c(O)c1-c1c(C)cc2c(C(C)C)c(O)c(O)c(/C=N/CCOc3ccccc3F)c2c1O (atropisomer, axis not shown) [Inhibitor 76] | 105 µM | –
6 | Cc1cc2nc[nH]c2c(/N=C/c2c(O)c(O)c(C(C)C)c3cc(C)c(-c4c(C)cc5c(C(C)C)c(O)c(O)c(/C=N/c6c(C)c(C)cc7nc[nH]c67)c5c4O)c(O)c23)c1C (atropisomer, axis not shown) [Inhibitor 86] | 2.58 µM | –
7 | Cc1cc2c(C(C)C)c(O)c(O)c(/C=N/NC(=O)c3ccoc3C)c2c(O)c1-c1c(C)cc2c(C(C)C)c(O)c(O)c(/C=N/NC(=O)c3ccoc3C)c2c1O (atropisomer, axis not shown) [Inhibitor 39] | 9.16 µM | –
8 | COc1cc(/C=N/c2c(C)n(C)n(-c3ccccc3)c2=O)ccc1O [Inhibitor 62] | 19.9 µM | –
9 | COc1c(C)cc(/N=C/c2c(O)c(O)c(C(C)C)c3cc(C)c(-c4c(C)cc5c(C(C)C)c(O)c(O)c(/C=N/c6cc(C)c(OC)c(C)c6)c5c4O)c(O)c23)cc1C (atropisomer, axis not shown) [Inhibitor 49] | 16.1 µM | –
10 | COc1ccc(OCC/N=C/c2c(O)c(O)c(C(C)C)c3cc(C)c(-c4c(C)cc5c(C(C)C)c(O)c(O)c(/C=N/CCOc6ccc(OC)cc6)c5c4O)c(O)c23)cc1 (atropisomer, axis not shown) [Inhibitor 40] | 29.4 µM | –
11 | CCCSCC/N=C/c1c(O)c(O)c(C(C)C)c2cc(C)c(-c3c(C)cc4c(C(C)C)c(O)c(O)c(/C=N/CCSCC)c4c3O)c(O)c12 (atropisomer, axis not shown) [Inhibitor 83] | 84.5 µM | –
12 | CC1=C(C2=C(C)C(=O)c3c(c(C=O)c(O)c(O)c3C(C)C)C2=O)C(=O)c2c(C=O)c(O)c(O)c(C(C)C)c2C1=O [Inhibitor 31] | 960 µM | –
13 | COc1cc(/N=C/c2c(O)c(O)c(C(C)C)c3cc(C)c(-c4c(C)cc5c(C(C)C)c(O)c(O)c(/C=N/c6ccc(C)c(OC)c6)c5c4O)c(O)c23)ccc1C (atropisomer, axis not shown) [Inhibitor 47] | 29.1 µM | –
14 | Cc1cc(OCC/N=C/c2c(O)c(O)c(C(C)C)c3cc(C)c(-c4c(C)cc5c(C(C)C)c(O)c(O)c(/C=N/CCOc6cc(C)c(Cl)c(C)c6Cl)c5c4O)c(O)c23)c(Cl)c(C)c1Cl (atropisomer, axis not shown) [Inhibitor 79] | 127 µM | –
15 | Cc1cc2c(C(C)C)c(O)c(O)c(/C=N/CCOc3ccc4c(c3)OCC4)c2c(O)c1-c1c(C)cc2c(C(C)C)c(O)c(O)c(/C=N/CCOc3ccc4c(c3)OCO4)c2c1O (atropisomer, axis not shown) [Inhibitor 41] | 328 µM | –
16 | CN(C)c1ccc(/C=C2/SC(=S)NC2=O)cc1 [Inhibitor 68] | 0.27 µM | –
17 | Cc1cc2c(c(O)c1-c1c(C)cc3c(c1O)/C(=C/Nc1ccc(S(N)(=O)=O)cc1)C(=O)C(O)=C3C(C)C)/C(=C/Nc1ccc(S(N)(=O)=O)cc1)C(=O)C(O)=C2C(C)C (atropisomer, axis not shown) [Inhibitor 25] | 74.3 µM | –
18 | Cc1cc2c(c(O)c1-c1c(C)cc3c(c1O)/C(=C\Nc1ccc(S(=O)(=O)NC(=N)N)cc1)C(=O)C(O)=C3C(C)C)/C(=C/Nc1ccc(S(=O)(=O)NC(=N)N)cc1)C(=O)C(O)=C2C(C)C [Inhibitor 16] | 1.03 µM | –
19 | Cc1ccc(OCC/N=C/c2c(O)c(O)c(C(C)C)c3cc(C)c(-c4c(C)cc5c(C(C)C)c(O)c(O)c(/C=N/CCOc6ccc(C)cc6Br)c5c4O)c(O)c23)c(Br)c1 (atropisomer, axis not shown) [Inhibitor 77] | 42.3 µM | –
20 | CCOC(=O)Nc1ccc(/N=C/c2c(O)c(O)c(C(C)C)c3cc(C)c(-c4c(C)cc5c(C(C)C)c(O)c(O)c(/C=N/c6ccc(NC(=O)OCC)cc6)c5c4O)c(O)c23)cc1 [Inhibitor 12] | 4710 µM | –
21 | Cc1cc2c(C(C)C)c(O)c(O)c(/C=N/n3c(=O)[nH][nH]c3=O)c2c(O)c1-c1c(C)cc2c(C(C)C)c(O)c(O)c(/C=N/n3c(=O)[nH][nH]c3=O)c2c1O (atropisomer, axis not shown) [Inhibitor 33] | 122 µM | –
22 | Cc1cc2c(C(C)C)c(O)c(O)c(/C=N/NCc3ccccc3Cl)c2c(O)c1-c1c(C)cc2c(C(C)C)c(O)c(O)c(/C=N/NCc3ccccc3Cl)c2c1O [Inhibitor 8] | 56.3 µM | –
23 | Cc1cc2c(C(C)C)c(O)c(O)c(/C=N/c3cccc(N4CCCC4=O)c3)c2c(O)c1-c1c(C)cc2c(C(C)C)c(O)c(O)c(/C=N/c3cccc(N4CCCC4=O)c3)c2c1O (atropisomer, axis not shown) [Inhibitor 87] | 17.6 µM | –
24 | Cc1cc2c(C(C)C)c(O)c(O)c(/C=N/NC(N)=S)c2c(O)c1-c1c(O)cc2c(/C=N/NC(N)=S)c(O)c(O)c(C(C)C)c2c1C [comparative compound, reference compound] | – | does not exhibit inhibition
25 | O=C1NC(=S)S/C1=C/c1ccc(O)cc1 [Inhibitor 66] | 14.7 µM | –
